The test system of test [1] is A. baumannii ATCC 19606 biofilm. Type of test: cell-based, Acinetobacter baumannii. Here is the method: (§1) The A. baumannii ATCC 19606 strain was acquired from the American Type Culture Collection and prepared in line with the manufacturer’s instructions. The culture was stored in Roti®-Store Cryo-Vials (Carl Roth GmbH, Karlsruhe, Germany) at − 20 °C. Before the tests, the bead with cryo-protected bacteria was transferred into fresh MHB (Biocorp, Warsaw, Poland) and incubated for 24 h at 37 °C. Then, the culture was seeded on MHA plates and incubated as just mentioned. The agar cultures prepared in this way were used for further experiments. Cell densities for all assays were adjusted spectrophotometrically (Multiskan™ GO Microplate Spectrophotometer, Thermo Scientific) at 600 nm.
The antibiofilm activity was determined on 96-well flat-bottomed microtiter polystyrene plates and 0.5-cm fragments of tracheal tubes (RIM-75, ZARYS International Group, Zabrze, Poland), with resazurin (7-hydroxy-3H-phenoxazin-3-one 10-oxide) as a cell viability reagent. The first part included assay on 96-well plates. To do this, the plates were filled with 100 μL of the initial inoculums of bacteria (0.5 × 10^7 CFU/mL) in the MHB and incubated for 24 h at 37 °C. Then, the wells were rinsed three times with PBS to remove non-adhered cells and the fresh medium with a series of concentrations (0.5–256 μg/mL) of the compounds was added. After 24 h of incubation, 20 μL of resazurin (4 mg/mL) was added to each well and the MBEC values were read. The assay on tracheal tube fragments was conducted using 24-well polystyrene plates. Briefly, the tracheal tube fragments were dipped in 1 mL of the bacterial inoculum (0.5 × 10^7 CFU/mL) and incubated at 37 °C. After 24 h of incubation, the test fragments were rinsed three times with PBS and transferred into other wells containing the fresh medium with a series of concentrations of the test compounds. Subsequently, the plates were incubated again for 24 h at 37 °C. Then, 200 μL of resazurin was added and the MBEC was read. All experiments were conducted in triplicate.

The next test relates to A. baumannii ATCC 19606. The test can be described thus: microbe, parasite or virus in culture. Type of test: cell-based, Acinetobacter baumannii. As for the experimental part:
as §1
The MICs and MBCs were determined with the reference to the Clinical and Laboratory Standards Institute guidelines. MICs were determined by broth microdilution method. For this purpose, initial inoculums of bacteria (0.5 × 10^5 CFU/mL) in MHB were exposed to a series of concentrations (0.5–256 μg/mL) of the compounds and incubated for 18 h at 37 °C. The experiments were conducted on 96-well microtiter polystyrene plates with the final volume of 100 μL. The MIC was taken as the lowest drug concentration at which a noticeable growth of microorganisms was inhibited. In parallel, the MIC wells, two above and one below (positive control), were cultured on a MHA plate. […] All experiments were conducted in triplicate.

Where [2] appears, read: 24 h biofilm on 0.5-cm tracheal tube fragments, 24 h treatment at 37 °C, resazurin read-out, triplicate.
[3] abbreviates: 24 h biofilm on polystyrene 96-well plates, 24 h treatment at 37 °C, resazurin read-out, triplicate.
Where [4] appears, read: Acinetobacter baumannii, ATCC19606, MIC wells cultured on MHA plate, 24 h at 37 °C, no visible growth, triplicate, read-out: MBC.
Setting [5] is: Acinetobacter baumannii, ATCC19606, broth microdilution (CLSI), MHB, inoculum 0.5 × 10^5 CFU/mL, 18 h at 37 °C, polystyrene 96-well plates, triplicate, read-out: MIC.
Setting [6] is: MIC wells cultured on MHA plate, 24 h at 37 °C, no visible growth, triplicate.
Where [7] appears, read: broth microdilution (CLSI), MHB, inoculum 0.5 × 10^5 CFU/mL, 18 h at 37 °C, polystyrene 96-well plates, triplicate.

Values after ≈ are worked out from the molar mass of the structure shown. Where two headings read alike, the source gives them in different places. Where no end group is shown, it is not given here. Where only a bound is given, the exact number is not on record here.

With `O=C(O)c1cn(C2CC2)c2cc(N3CCNCC3)c(F)cc2c1=O` [Ciprofloxacin, reference compound], the “MBEC^tt” value in test [1] (setting [2]) is 1 µg/mL. Also, the MBEC in test [1] (setting [3]) amounted to 2 µg/mL. Moreover, the MBC with A. baumannii ATCC 19606 (setting [4]) was 1 µg/mL (≈ 3.02 µM).
With `CC[C@H]1OC(=O)[C@H](C)[C@@H](O[C@H]2C[C@@](C)(OC)[C@@H](O)[C@H](C)O2)[C@H](C)[C@@H](O[C@@H]2O[C@H](C)C[C@H](N(C)C)[C@H]2O)[C@](C)(O)C[C@@H](C)C(=O)[C@H](C)[C@@H](O)[C@]1(C)O` [Erythromycin, reference compound], in test [1] (setting [2]), the “MBEC^tt” value is 16 µg/mL. The MBEC in test [1] (setting [3]) amounted to 32 µg/mL. Moreover, in the test with A. baumannii ATCC 19606 (setting [4]), the MBC stood at 32 µg/mL (≈ 43.6 µM). The MIC in the test with A. baumannii ATCC 19606 (setting [5]) came to 32 µg/mL (≈ 43.6 µM).
Regarding `CNC(C)C1CCC(N)C(OC2C(N)CC(N)C(OC3OCC(C)(O)C(NC)C3O)C2O)O1` (stereo not drawn) [Gentamicin, reference compound], in test [1] (setting [2]), the “MBEC^tt” value amounted to 32 µg/mL. For the same molecule, in test [1] (setting [3]), the MBEC amounted to 32 µg/mL. Also, in the test with A. baumannii ATCC 19606 (setting [4]), the MBC stood at 32 µg/mL (≈ 67 µM). In addition, the MIC in the test on A. baumannii ATCC 19606 (setting [5]) was found to be 16 µg/mL (≈ 33.5 µM).
For `CCN1CCN(C(=O)N[C@@H](C(=O)N[C@@H]2C(=O)N3[C@@H]2SC(C)(C)[C@@H]3C(=O)O)c2ccccc2)C(=O)C1=O` [Piperacillin, reference compound], the “MBEC^tt” value is greater than 512 µg/mL in test [1] (setting [2]) and “failed to eradicate the biofilm at any concentration” in test [1] (24 h biofilm on 0.5-cm tracheal tube fragments, 24 h treatment at 37 °C, resazurin read-out, triplicate, listed as piperacillin). The MBEC result in test [1] (setting [3]) is given as “failed to eradicate the biofilm at any concentration”. Besides, the MBC with A. baumannii ATCC 19606 (setting [4]) was 128 µg/mL (≈ 247 µM). Also, the MIC in the test on A. baumannii ATCC 19606 (setting [5]) was found to be 64 µg/mL (≈ 124 µM).
Consider `CO[C@H]1/C=C/O[C@@]2(C)Oc3c(C)c(O)c4c(O)c(c(/C=N/N5CCN(C)CC5)c(O)c4c3C2=O)NC(=O)/C(C)=C\C=C\[C@H](C)[C@H](O)[C@@H](C)[C@@H](O)[C@@H](C)[C@H](OC(C)=O)[C@@H]1C` [Rifampicin, reference compound], for which the “MBEC^tt” value in test [1] (setting [2]) came to 4 µg/mL. The MBEC in test [1] (setting [3]) amounted to 8 µg/mL. The MBC in the test with A. baumannii ATCC 19606 (setting [4]) stood at 4 µg/mL (≈ 4.86 µM). Besides, the MIC in the test on A. baumannii ATCC 19606 (setting [5]) worked out at 4 µg/mL (≈ 4.86 µM).
In the case of `CN(C)[C@@H]1C(O)=C(C(N)=O)C(=O)[C@@]2(O)C(O)=C3C(=O)c4c(O)cccc4[C@@](C)(O)[C@H]3C[C@@H]12` [Tetracycline, reference compound], in test [1] (setting [2]), the “MBEC^tt” value was 4 µg/mL. For the same molecule, the MBEC in test [1] (setting [3]) came out at 16 µg/mL. Also, the MBC with A. baumannii ATCC 19606 (setting [4]) was determined as 4 µg/mL (≈ 9 µM). In addition, in the test on A. baumannii ATCC 19606 (setting [5]), the MIC was found to be 2 µg/mL (≈ 4.5 µM).
For the molecule FLPLIGRVLSGIL-NH2 [Temporin A], the “MBEC^tt” value in test [1] (ATCC 19606, 24 h) was 256 µg/mL. This molecule returned an MIC with A. baumannii ATCC 19606 (ATCC 19606, 18 h) of 128 µg/mL. In the test with A. baumannii ATCC 19606 (ATCC 19606, 24 h), the MBC amounted to 128 µg/mL.
GIGKFLKKAKKFGKAFVKILKK-NH2 [Pexiganan]: in test [1] (ATCC 19606, 24 h), the MBEC came to 256 µg/mL and the “MBEC^tt” value is 32 µg/mL. In addition, in the test on A. baumannii ATCC 19606 (ATCC 19606, 18 h), the MIC came out at 2 µg/mL. In the test with A. baumannii ATCC 19606 (ATCC 19606, 24 h), this molecule yielded an MBC of 4 µg/mL.
On to GLFDIIKKIAESF-NH2 [Aurein 1.2], for which the “MBEC^tt” value in test [1] (setting [2]) was 32 µg/mL. Moreover, in test [1] (setting [3]), the MBEC stood at 64 µg/mL. For the same molecule, the MBC against A. baumannii ATCC 19606 (setting [6]) was found to be 16 µg/mL. This molecule came in with an MIC against A. baumannii ATCC 19606 (setting [7]) of 16 µg/mL.
Turning to GLFDVIKKVASVIGGL-NH2 [Citropin 1.1], in test [1] (ATCC 19606, 24 h), the MBEC is 256 µg/mL and the “MBEC^tt” value was found to be 32 µg/mL. The MIC in the test with A. baumannii ATCC 19606 (ATCC 19606, 18 h) is 16 µg/mL. Also, the MBC in the test on A. baumannii ATCC 19606 (ATCC 19606, 24 h) was found to be 16 µg/mL.
Regarding ILRWPWWPWRRK-NH2 [Omiganan], in test [1] (ATCC 19606, 24 h), the MBEC amounted to 256 µg/mL and the “MBEC^tt” value worked out at 128 µg/mL. Also, the MIC against A. baumannii ATCC 19606 (ATCC 19606, 18 h) stood at 32 µg/mL. Also, the MBC in the test on A. baumannii ATCC 19606 (ATCC 19606, 24 h) amounted to 64 µg/mL.
The like results for KRRWPWWPWRLI-NH2 [r-Omiganan] were, in that order, 256 µg/mL, 128 µg/mL, 16 µg/mL and 16 µg/mL.
Take KWKLFKKIGAVLKVL-NH2 [CAMEL]: the “MBEC^tt” value in test [1] (setting [2]) is 64 µg/mL. For the same molecule, the MBEC in test [1] (setting [3]) is 128 µg/mL. Moreover, in the test on A. baumannii ATCC 19606 (setting [6]), the MBC was 4 µg/mL. Further, the MIC against A. baumannii ATCC 19606 (setting [7]) was 2 µg/mL.

The values above are taken from publication PMC6449538, “Antimicrobial Activity of Selected Antimicrobial Peptides Against Planktonic Culture and Biofilm of Acinetobacter baumannii” (Probiotics and Antimicrobial Proteins, 2018).
